What all share (test): kinase panel
Format in all cases: biochemical

One test deals with c-RAF(h) (Homo sapiens, UniProt P04049). An outline of the steps:
(§1)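 Three compounds in the series were profiled against a panel of 231 kinases, and activity is reported as % inhibition. For one compound, a subset of 98 kinases was selected on the basis of its structural similarity to another series member.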

The target in a further test is IRAK1(h) (Homo sapiens, UniProt P51617). An outline of the steps:
as §1

The target of another test is Flt1(h) (Homo sapiens, UniProt P17948). An outline of the steps:
as §1

The next test addresses mTOR(h) (Homo sapiens, UniProt P42345). An outline of the steps:
as §1

Another test addresses MAPKAP-K2(h) (Homo sapiens, UniProt P49137). In short, it runs like this: as §1
A further test concerns the target ROCK-I(h) (Homo sapiens, UniProt Q13464). In short, it runs like this:
as §1

In the next test the target is T1, Haspin(h) (Homo sapiens, UniProt Q8TF76).
T1 sequence (Q8TF76 1-798): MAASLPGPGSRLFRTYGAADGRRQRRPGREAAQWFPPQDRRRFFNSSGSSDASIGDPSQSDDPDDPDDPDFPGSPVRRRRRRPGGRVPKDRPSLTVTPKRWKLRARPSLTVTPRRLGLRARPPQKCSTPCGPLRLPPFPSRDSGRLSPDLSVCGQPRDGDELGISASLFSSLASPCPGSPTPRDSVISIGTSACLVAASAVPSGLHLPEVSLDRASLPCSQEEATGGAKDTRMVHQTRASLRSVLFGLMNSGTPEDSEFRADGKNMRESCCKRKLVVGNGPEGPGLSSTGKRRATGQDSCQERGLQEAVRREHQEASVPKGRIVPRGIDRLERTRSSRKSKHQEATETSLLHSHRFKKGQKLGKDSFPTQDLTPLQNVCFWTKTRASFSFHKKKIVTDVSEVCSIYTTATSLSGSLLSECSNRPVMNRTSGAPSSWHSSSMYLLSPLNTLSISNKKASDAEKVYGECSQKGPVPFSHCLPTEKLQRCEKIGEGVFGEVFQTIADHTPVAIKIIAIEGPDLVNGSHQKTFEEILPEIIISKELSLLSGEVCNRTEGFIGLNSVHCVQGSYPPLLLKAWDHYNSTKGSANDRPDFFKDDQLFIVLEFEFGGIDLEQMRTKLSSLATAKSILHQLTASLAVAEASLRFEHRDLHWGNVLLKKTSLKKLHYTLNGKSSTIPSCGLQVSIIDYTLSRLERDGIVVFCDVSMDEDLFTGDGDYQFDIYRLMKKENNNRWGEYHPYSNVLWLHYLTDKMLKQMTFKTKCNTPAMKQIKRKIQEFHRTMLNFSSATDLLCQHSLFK
An outline of the steps:
as §1

For a further test, the target named is Met(h) (Homo sapiens, UniProt P08581). An outline of the steps:
as §1

The target in the next test is T2, EphA1(h) (Homo sapiens, UniProt P21709).
T2 sequence (P21709 26-976): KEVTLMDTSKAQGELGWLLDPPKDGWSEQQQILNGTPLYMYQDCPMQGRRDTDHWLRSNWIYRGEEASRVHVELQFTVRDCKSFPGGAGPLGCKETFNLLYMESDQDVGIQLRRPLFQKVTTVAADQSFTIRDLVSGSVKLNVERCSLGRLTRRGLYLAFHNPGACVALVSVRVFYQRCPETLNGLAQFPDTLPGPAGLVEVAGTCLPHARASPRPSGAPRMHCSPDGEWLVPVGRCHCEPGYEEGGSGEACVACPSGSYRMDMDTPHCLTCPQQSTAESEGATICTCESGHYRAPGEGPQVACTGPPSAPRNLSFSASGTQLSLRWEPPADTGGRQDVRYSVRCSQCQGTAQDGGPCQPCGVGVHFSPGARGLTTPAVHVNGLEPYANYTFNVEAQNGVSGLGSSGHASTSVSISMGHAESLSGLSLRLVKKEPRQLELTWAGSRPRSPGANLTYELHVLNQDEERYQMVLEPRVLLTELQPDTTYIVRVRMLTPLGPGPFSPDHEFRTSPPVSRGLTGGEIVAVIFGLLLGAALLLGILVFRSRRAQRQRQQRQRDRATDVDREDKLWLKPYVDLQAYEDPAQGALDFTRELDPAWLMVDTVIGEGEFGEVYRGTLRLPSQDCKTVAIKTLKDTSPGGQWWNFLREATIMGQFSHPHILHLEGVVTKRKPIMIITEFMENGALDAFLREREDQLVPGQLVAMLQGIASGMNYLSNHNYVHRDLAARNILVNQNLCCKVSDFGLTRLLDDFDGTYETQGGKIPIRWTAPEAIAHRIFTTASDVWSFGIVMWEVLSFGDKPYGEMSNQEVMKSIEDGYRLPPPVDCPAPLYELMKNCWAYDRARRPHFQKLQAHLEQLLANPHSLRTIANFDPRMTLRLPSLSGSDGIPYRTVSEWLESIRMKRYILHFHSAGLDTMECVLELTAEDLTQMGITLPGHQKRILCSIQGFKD
In short, it runs like this: as §1

For another test, the target named is CaMKIIδ(h) (Homo sapiens, UniProt Q13557). An outline of the steps: as §1

Chain of MAPKAP-K2(h) (P49137 whole entry): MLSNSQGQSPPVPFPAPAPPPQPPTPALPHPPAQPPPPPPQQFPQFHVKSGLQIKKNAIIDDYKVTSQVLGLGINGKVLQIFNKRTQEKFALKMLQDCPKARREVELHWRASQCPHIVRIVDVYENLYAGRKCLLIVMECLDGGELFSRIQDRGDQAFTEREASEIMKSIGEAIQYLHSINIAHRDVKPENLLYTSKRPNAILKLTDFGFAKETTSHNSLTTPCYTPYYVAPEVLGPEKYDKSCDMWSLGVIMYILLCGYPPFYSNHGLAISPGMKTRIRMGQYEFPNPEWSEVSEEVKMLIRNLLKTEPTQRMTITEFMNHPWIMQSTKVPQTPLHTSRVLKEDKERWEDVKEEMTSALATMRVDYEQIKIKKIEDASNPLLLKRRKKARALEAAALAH
Chain of Flt1(h) (P17948 27-1338): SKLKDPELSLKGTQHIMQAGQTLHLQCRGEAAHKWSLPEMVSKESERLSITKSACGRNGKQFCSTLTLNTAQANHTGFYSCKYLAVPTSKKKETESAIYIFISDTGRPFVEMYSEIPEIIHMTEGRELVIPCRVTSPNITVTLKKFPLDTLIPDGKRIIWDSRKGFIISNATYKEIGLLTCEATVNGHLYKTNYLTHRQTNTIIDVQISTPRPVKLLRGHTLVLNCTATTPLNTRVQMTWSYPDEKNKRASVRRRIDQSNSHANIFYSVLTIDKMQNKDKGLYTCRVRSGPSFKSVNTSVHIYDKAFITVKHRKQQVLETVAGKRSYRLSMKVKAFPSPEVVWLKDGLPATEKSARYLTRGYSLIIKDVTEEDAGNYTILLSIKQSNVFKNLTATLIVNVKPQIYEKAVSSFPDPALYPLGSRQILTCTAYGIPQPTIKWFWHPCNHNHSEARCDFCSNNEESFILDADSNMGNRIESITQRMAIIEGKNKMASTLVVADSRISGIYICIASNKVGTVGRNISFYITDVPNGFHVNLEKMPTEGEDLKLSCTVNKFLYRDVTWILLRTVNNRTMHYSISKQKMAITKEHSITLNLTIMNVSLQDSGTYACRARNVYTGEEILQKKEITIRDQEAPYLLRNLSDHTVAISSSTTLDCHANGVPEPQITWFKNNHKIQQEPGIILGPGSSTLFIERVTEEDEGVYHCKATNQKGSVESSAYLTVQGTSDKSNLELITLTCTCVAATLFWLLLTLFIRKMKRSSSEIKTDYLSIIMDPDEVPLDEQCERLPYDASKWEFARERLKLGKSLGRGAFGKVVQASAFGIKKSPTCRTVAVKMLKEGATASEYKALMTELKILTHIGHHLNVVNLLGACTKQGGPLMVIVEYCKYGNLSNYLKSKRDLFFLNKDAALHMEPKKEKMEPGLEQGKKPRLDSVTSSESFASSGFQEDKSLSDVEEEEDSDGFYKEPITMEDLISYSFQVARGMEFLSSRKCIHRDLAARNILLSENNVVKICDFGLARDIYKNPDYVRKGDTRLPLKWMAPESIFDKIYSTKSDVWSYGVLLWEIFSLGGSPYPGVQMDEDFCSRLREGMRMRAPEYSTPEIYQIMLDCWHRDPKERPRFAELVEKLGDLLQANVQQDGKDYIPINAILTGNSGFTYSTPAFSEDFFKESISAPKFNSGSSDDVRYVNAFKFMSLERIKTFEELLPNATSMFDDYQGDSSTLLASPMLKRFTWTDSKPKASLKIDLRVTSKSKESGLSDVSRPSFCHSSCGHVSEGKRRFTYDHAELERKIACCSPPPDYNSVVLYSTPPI
Chain of c-RAF(h) (P04049 whole entry): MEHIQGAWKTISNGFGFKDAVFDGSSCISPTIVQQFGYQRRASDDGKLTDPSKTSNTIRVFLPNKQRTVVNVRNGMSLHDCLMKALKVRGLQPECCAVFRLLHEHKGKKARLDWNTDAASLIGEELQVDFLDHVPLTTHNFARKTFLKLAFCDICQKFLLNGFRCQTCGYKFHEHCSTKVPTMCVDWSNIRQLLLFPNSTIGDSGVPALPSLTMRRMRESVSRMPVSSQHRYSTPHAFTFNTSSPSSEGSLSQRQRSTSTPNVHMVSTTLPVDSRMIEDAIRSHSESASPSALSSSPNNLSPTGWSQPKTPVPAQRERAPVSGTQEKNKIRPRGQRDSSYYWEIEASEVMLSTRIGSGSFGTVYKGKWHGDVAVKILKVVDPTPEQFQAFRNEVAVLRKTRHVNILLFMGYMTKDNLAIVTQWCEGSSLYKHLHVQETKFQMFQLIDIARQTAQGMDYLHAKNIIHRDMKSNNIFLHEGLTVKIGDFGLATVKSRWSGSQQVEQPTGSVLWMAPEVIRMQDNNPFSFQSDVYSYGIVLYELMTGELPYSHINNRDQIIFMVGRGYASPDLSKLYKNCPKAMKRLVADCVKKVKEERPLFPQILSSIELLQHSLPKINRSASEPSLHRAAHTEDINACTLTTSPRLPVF
Chain of ROCK-I(h) (Q13464 whole entry): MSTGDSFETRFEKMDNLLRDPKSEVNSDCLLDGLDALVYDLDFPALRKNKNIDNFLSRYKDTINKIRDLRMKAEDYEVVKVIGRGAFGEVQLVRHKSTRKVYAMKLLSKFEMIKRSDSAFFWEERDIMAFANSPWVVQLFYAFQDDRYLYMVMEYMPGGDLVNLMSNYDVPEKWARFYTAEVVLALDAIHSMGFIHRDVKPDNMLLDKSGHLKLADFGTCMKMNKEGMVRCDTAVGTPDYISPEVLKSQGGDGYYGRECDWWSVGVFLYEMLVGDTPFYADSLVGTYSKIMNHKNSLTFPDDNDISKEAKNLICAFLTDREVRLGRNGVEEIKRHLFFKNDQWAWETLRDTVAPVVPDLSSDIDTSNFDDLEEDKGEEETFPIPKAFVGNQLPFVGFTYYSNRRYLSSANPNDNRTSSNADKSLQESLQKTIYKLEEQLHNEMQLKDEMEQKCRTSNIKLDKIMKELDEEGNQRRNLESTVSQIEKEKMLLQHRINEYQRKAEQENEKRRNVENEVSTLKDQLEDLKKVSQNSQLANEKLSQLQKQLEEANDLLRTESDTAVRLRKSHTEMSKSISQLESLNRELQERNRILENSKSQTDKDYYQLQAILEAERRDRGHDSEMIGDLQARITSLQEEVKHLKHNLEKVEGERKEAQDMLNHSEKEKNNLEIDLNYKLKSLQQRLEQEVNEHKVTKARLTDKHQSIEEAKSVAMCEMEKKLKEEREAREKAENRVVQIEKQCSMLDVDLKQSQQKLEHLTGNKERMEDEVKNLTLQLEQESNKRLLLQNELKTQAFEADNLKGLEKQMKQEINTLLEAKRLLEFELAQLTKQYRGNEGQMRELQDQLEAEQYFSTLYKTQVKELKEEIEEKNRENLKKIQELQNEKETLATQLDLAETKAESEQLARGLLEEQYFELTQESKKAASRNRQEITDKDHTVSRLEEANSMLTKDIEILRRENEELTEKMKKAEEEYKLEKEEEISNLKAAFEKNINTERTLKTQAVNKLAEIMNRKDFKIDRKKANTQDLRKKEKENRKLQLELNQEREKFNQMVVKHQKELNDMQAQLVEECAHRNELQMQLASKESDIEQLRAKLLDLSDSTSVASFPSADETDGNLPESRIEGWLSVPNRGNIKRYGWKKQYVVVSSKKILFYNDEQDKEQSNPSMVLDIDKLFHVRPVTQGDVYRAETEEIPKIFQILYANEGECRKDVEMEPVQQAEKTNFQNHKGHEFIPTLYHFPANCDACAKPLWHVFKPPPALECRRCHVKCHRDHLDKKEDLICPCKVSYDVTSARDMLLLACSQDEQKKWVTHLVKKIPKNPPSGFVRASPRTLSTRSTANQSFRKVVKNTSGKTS
Chain of Met(h) (P08581 25-1390): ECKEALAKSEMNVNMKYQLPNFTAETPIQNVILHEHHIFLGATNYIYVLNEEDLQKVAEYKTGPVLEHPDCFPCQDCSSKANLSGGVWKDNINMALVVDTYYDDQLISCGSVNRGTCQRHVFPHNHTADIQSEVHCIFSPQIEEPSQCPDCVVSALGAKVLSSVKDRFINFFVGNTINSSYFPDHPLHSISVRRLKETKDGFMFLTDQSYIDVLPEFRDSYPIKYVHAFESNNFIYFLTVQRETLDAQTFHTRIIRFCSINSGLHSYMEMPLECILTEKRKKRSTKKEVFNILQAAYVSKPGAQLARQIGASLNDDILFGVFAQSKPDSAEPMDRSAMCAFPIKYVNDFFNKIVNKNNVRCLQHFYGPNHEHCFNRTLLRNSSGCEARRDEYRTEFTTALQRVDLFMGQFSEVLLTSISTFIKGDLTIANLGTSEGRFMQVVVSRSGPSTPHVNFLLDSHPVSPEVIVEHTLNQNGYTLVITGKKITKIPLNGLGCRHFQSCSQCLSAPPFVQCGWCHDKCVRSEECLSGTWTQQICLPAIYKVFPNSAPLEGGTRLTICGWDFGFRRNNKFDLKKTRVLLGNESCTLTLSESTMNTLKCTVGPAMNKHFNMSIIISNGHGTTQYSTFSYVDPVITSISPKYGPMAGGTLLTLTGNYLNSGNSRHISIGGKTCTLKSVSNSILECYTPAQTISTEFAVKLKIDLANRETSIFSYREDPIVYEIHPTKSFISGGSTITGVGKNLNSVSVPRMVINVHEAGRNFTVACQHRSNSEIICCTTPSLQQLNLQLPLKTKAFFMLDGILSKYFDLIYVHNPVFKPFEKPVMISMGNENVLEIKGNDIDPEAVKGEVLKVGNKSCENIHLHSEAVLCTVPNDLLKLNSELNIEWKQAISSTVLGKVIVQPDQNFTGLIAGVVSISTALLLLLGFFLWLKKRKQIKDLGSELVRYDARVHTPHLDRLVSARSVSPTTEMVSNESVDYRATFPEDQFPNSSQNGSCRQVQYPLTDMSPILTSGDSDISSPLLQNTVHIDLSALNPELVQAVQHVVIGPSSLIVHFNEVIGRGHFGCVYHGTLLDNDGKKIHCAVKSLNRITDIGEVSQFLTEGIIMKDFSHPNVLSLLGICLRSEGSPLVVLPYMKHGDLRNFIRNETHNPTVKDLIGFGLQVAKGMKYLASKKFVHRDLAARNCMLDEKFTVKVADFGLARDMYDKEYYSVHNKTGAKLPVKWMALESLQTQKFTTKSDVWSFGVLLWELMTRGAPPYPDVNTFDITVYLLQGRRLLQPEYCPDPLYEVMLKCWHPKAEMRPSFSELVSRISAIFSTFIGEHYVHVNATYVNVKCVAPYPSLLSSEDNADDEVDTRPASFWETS

Regarding `Nc1n[nH]c2ccc(-c3ccnc4[nH]c(-c5ccnc(OCc6ccccc6)c5)cc34)cc12` [Compound 6g [SU1349]], the inhibition at 1 µM on c-RAF(h) is 2%; at IRAK1(h), 37%; against Flt1(h), 6%; against mTOR(h), 0%; on MAPKAP-K2(h), 1%; against ROCK-I(h), 10%. The inhibition at 1 µM at Haspin(h) is 92%; at Met(h), -3%; at EphA1(h), -7%; at CaMKIIδ(h) it was 37%.

As for `Nc1n[nH]c2ccc(-c3ccnc4[nH]c(-c5cccc(OCc6ccccc6)c5)cc34)cc12` [Compound 5r [SU1261]], the inhibition at 1 µM is 20% on c-RAF(h); 42% at IRAK1(h); 58% on Flt1(h); 8% against mTOR(h); -3% against MAPKAP-K2(h); 28% against ROCK-I(h). Besides, the inhibition at 1 µM against Haspin(h) is 94%; on Met(h) it was 14%; against EphA1(h), 24%; on CaMKIIδ(h), 61%.

Turning to `Nc1n[nH]c2ccc(-c3ccnc4[nH]c(-c5ccccc5)cc34)cc12` [Compound 4], the inhibition at 1 µM was 29% on c-RAF(h); 89% on IRAK1(h); 94% on Flt1(h); 10% against mTOR(h); 38% at MAPKAP-K2(h); 13% against ROCK-I(h). In addition, the inhibition at 1 µM against Haspin(h) is 101%; against Met(h), 61%; against EphA1(h), 87%; on CaMKIIδ(h), 80%.

Source of the values: article PMC11314561, “Design and Synthesis of Novel Aminoindazole-pyrrolo[2,3-b]pyridine Inhibitors of IKKα That Selectively Perturb Cellular Non-Canonical NF-κB Signalling” (Molecules, 2024).
